The results in this text go back to patent US8895561B2, “Compounds and methods for treating candidiasis and aspergillus infections” (Cellceutix Corporation, priority 2012, dated 2014).

The structures appear in SMILES notation. Converted amounts (≈) assume the structure as drawn. Like-named read-outs stand apart in the source and are kept apart here.

The subject of data set [1] is C. albicans GDH2346. Nature of the data set: Candida IC50, vegetative cells, by OD600 and fluorescence. The class given is cell-based. Conditions: for IC50: Candida albicans, GDH2346. On the procedure:
Candida IC50s were determined by OD600 and fluorescence from vegetative cells and by MTS viability assay in the hyphal state. MICs were determined using a broth microdilution assay under standard CLSI conditions Bacteria strains: E. coli 25922 (EC), S. aureus 27660 (SA), E. faecalis 29212 (EF), P. aeruginosa 10145 (PA), and K. pneumoniae 13883 (KP). Cytotoxicity (EC50) was determined against mouse 3T3 fibroblasts, human transformed liver HepG2 cells, and human oral keratinocyte cell line, OKF6/TERT using an MTS viability assay. Candida IC50s<10 μg/mL, MICs<5 μg/mL and cytotoxicity EC50s>100 μM are indicated in green. MICs>5 μg/mL and cytotoxicity EC50s<100 μM are indicated in red. Candida IC50s (CA) were determined by OD600 and fluorescence from vegetative cells. MICs were determined using a broth microdilution assay under standard CLSI conditions Bacteria strains: E. coli 25922 (EC), S. aureus 27660 (SA), E. faecalis 29212 (EF), P. aeruginosa 10145 (PA), and K. pneumoniae 13883 (KP). Cytotoxicity (EC50) was determined against mouse 3T3 fibroblasts and human transformed liver HepG2 cells using an MTS viability assay. For determination of anti-Candida IC50s, the method was modified by using RPMI/MOPS buffer pH 6.3 and by addition of FDGlu, a substrate for the yeast enzyme exoglucanase which is secreted during cell growth. This provides a fluorescent readout for cell growth which was used in addition to the traditional optical density measure of growth. OD600 and fluorescence were determined at 24 and 48 hours and the average of all 4 reads was used for the final IC50 determination.

The nature of data set [2]: Cytotoxicity, MTS viability assay. The class given is cell-based, human. Conditions: Table 6. The protocol: (§1) Candida IC50s were determined by OD600 and fluorescence from vegetative cells and by MTS viability assay in the hyphal state. MICs were determined using a broth microdilution assay under standard CLSI conditions Bacteria strains: E. coli 25922 (EC), S. aureus 27660 (SA), E. faecalis 29212 (EF), P. aeruginosa 10145 (PA), and K. pneumoniae 13883 (KP). Cytotoxicity (EC50) was determined against mouse 3T3 fibroblasts, human transformed liver HepG2 cells, and human oral keratinocyte cell line, OKF6/TERT using an MTS viability assay. Candida IC50s<10 μg/mL, MICs<5 μg/mL and cytotoxicity EC50s>100 μM are indicated in green. MICs>5 μg/mL and cytotoxicity EC50s<100 μM are indicated in red.
(§2) Candida IC50s (CA) were determined by OD600 and fluorescence from vegetative cells. MICs were determined using a broth microdilution assay under standard CLSI conditions Bacteria strains: E. coli 25922 (EC), S. aureus 27660 (SA), E. faecalis 29212 (EF), P. aeruginosa 10145 (PA), and K. pneumoniae 13883 (KP). Cytotoxicity (EC50) was determined against mouse 3T3 fibroblasts and human transformed liver HepG2 cells using an MTS viability assay.
(§3) CLSI conditions Bacteria strains: clinical isolates; yeast strains: C. dubliniensis (NCPF3949), C. glabrata (ATCC 90030), C. krusei (ATCC 6258), C. parapsilosis (ATCC 22019), and C. tropicalis (ATCC 750). Cytotoxicity (EC50) was determined against mouse 3T3 fibroblasts, human transformed liver HepG2 cells, and human oral keratinocyte cell line, OKF6/TERT using an MTS viability assay.
(In general: Formazan colour is commonly taken as a measure of viable cells.)

The test system of data set [3] is A. flavus (NRRL3357). Nature of the data set: Anti-Aspergillus screen, CLSI M38-A, visual inhibition of growth. The class given is cell-based. Conditions: screening concentration 10 μM, 24-48 hours. The protocol: (§4) The in vitro efficacy of a library of compounds was assessed for antifungal activity against A. niger (AN1), A. fumigatus ([…]) and A. flavus (NRRL3357) and compared to that of Itraconazole. For a subset of compounds selected based upon efficacy in the screening study a full MIC profile was conducted. Efficacy of test articles was determined in RPMI 1640 broth with MOPS buffered to pH7.2 in accordance with CLSI guidelines M38-A for Antifungal Susceptibility Testing of Filamentous Fungi. The method was modified by using flat well plates to allow microscopic identification of growth. The final screening concentration of each test article was 10 μM. Assay plates were incubated aerobically at 37° C. for 24-48 hours. Following incubation, plates were assessed visually (by eye and microscopically) for inhibition of growth. Inhibition was recorded at 50%, 80% and 100% inhibition compared to the positive control.

The test system of data set [4] is A. fumigatus (A1163). Described as above. Format: cell-based. The note with it: screening concentration 10 μM, 24-48 hours. The protocol:
as §4

For data set [5], the system named is A. niger (AN1). The data set is described as above. Format: cell-based. The note with it: screening concentration 10 μM, 24-48 hours. The protocol: as §4
Data set [6] concerns C. albicans GDH2346 hyphal biofilm. Nature of the data set: Candida IC50 in the hyphal state / hyphal biofilm, MTS viability assay. Format: cell-based. Conditions: Candida albicans; hyphal state; read-out: IC50 Candida, Hyphal. On the procedure: Candida IC50s were determined by OD600 and fluorescence from vegetative cells and by MTS viability assay in the hyphal state. MICs were determined using a broth microdilution assay under standard CLSI conditions Bacteria strains: E. coli 25922 (EC), S. aureus 27660 (SA), E. faecalis 29212 (EF), P. aeruginosa 10145 (PA), and K. pneumoniae 13883 (KP). Cytotoxicity (EC50) was determined against mouse 3T3 fibroblasts, human transformed liver HepG2 cells, and human oral keratinocyte cell line, OKF6/TERT using an MTS viability assay. Candida IC50s<10 μg/mL, MICs<5 μg/mL and cytotoxicity EC50s>100 μM are indicated in green. MICs>5 μg/mL and cytotoxicity EC50s<100 μM are indicated in red. To form the biofilm, yeast were grown in RPMI/MOPS, 0.4% sucrose pH7.4 media supplemented with 10% FBS in tissue culture-treated flat bottom 96 well plates for 48 hours. The filamentous yeast cultures were then vigorously washed to remove any non-filamentous, non-attached yeast. The remaining attached filamentous biofilm yeast were incubated in saline containing serially diluted compounds for 24 hours. The cultures were aspirated to remove compound, rinsed and overlayed with RPMI/MOPS, 0.4% sucrose pH7.4 media. Biofilm viability was measured using a cell proliferation assay (CellTiter96 Aqueous Kit from Promega) and IC50s were determined using Prism GraphPad software (nonlinear fit, Table 3).

The test system of data set [7] is E. coli 25922. Nature of the data set: Bacterial MIC, broth microdilution, CLSI. The class given is cell-based. On the procedure: as §1, with “red. Candida IC50s (CA) were determined by OD600 and fluorescence from vegetative cells. MICs were determined using a broth microdilution assay under standard CLSI conditions Bacteria strains: E. coli 25922 (EC), S. aureus 27660 (SA), E. faecalis 29212 (EF), P. aeruginosa 10145 (PA), and K. pneumoniae 13883 (KP). Cytotoxicity (EC50) was determined against mouse 3T3 fibroblasts and human transformed liver HepG2 cells using an MTS viability assay.” for “red.”
On the technique in general: In broth dilution the organism is exposed to a series of concentrations in liquid medium.

The test system of data set [8] is E. faecalis 29212. Nature of the data set: Bacterial MIC, broth microdilution, CLSI. Format: cell-based. The protocol:
as §1, with “red. Candida IC50s (CA) were determined by OD600 and fluorescence from vegetative cells. MICs were determined using a broth microdilution assay under standard CLSI conditions Bacteria strains: E. coli 25922 (EC), S. aureus 27660 (SA), E. faecalis 29212 (EF), P. aeruginosa 10145 (PA), and K. pneumoniae 13883 (KP). Cytotoxicity (EC50) was determined against mouse 3T3 fibroblasts and human transformed liver HepG2 cells using an MTS viability assay.” for “red.”

Data set [9] relates to P. aeruginosa 10145. Nature of the data set: Bacterial MIC, broth microdilution, CLSI. The class given is cell-based. The protocol:
as §1, with “red. Candida IC50s (CA) were determined by OD600 and fluorescence from vegetative cells. MICs were determined using a broth microdilution assay under standard CLSI conditions Bacteria strains: E. coli 25922 (EC), S. aureus 27660 (SA), E. faecalis 29212 (EF), P. aeruginosa 10145 (PA), and K. pneumoniae 13883 (KP). Cytotoxicity (EC50) was determined against mouse 3T3 fibroblasts and human transformed liver HepG2 cells using an MTS viability assay.” for “red.”

Data set [10] concerns K. pneumoniae 13883. Nature of the data set: Bacterial MIC, broth microdilution, CLSI. Format: cell-based. Conditions: Klebsiella pneumoniae. On the procedure:
as §1, with “red. Candida IC50s (CA) were determined by OD600 and fluorescence from vegetative cells. MICs were determined using a broth microdilution assay under standard CLSI conditions Bacteria strains: E. coli 25922 (EC), S. aureus 27660 (SA), E. faecalis 29212 (EF), P. aeruginosa 10145 (PA), and K. pneumoniae 13883 (KP). Cytotoxicity (EC50) was determined against mouse 3T3 fibroblasts and human transformed liver HepG2 cells using an MTS viability assay.” for “red.”

Data set [11] has as its system S. aureus 27660. Nature of the data set: Bacterial MIC, broth microdilution, CLSI. Format: cell-based. On the procedure:
as §1, with “red. Candida IC50s (CA) were determined by OD600 and fluorescence from vegetative cells. MICs were determined using a broth microdilution assay under standard CLSI conditions Bacteria strains: E. coli 25922 (EC), S. aureus 27660 (SA), E. faecalis 29212 (EF), P. aeruginosa 10145 (PA), and K. pneumoniae 13883 (KP). Cytotoxicity (EC50) was determined against mouse 3T3 fibroblasts and human transformed liver HepG2 cells using an MTS viability assay.” for “red.”

Data set [12] has as its system human oral keratinocyte cell line, OKF6/TERT. Nature of the data set: Cytotoxicity, MTS viability assay. Format: cell-based. On the procedure: as §1, §3
Data set [13] has as its system human transformed liver HepG2 cells. Nature of the data set: Cytotoxicity, MTS viability assay. The class given is cell-based. The protocol:
as §1, §2, §3

Data set [14] deals with mouse 3T3 fibroblasts. Nature of the data set: Cytotoxicity, MTS viability assay. Format: cell-based. On the procedure:
as §1, §2, §3

Setting [15] is: Table 6, read-out: IC50 C. albicans.
Setting [16] is: human, HepG2 cells (transformed liver), read-out: Cytotoxicity EC50 Human HepG2.
Setting [17] is: mouse, 3T3 fibroblasts, read-out: Cytotoxicity EC50 Mouse 3T3.

As a reminder, the IC50 is the concentration needed to halve the response being measured. By EC50 is commonly meant the concentration giving half of the maximal effect. Broadly, the inhibition is the drop in the measured response relative to a control, in per cent. A high value points to a response far below the control. On to `COc1ccc(CNC(=N)N)cc1NC(=O)c1cc(C(=O)Nc2cc(CNC(=N)N)ccc2OC)c(OCCC(C)C)cc1OCCC(C)C` [Cmpd 184], for which, in data set [1] (setting [15]), the IC50 worked out at 3.1 µg/mL (≈ 4.49 µM). The EC50 is 155 µM in data set [2] (setting [16]) and no less than 1000 µM in data set [2] (setting [17]). In addition, the inhibition at 10 µM in data set [3], in data set [4] and in data set [5] was 100% in each case.

For `NCCCOc1cccc(-n2cc(-c3ccc4ccc(-c5cn(-c6cccc(OCCCN)c6)nn5)cc4c3)nn2)c1` [Compound 138], the IC50 in data set [1] (vegetative cells, read-out: IC50 Candida, Vegetative) is 4.1 µg/mL (≈ 7.31 µM); in [6], 7.5 µg/mL (≈ 13.4 µM); in data set [12], 491 µM; in [13] (Homo sapiens, HepG2, cytotoxicity), 502 µM; in data set [14] (Mus musculus, NIH3T3, cytotoxicity), 406 µM. Besides, the EC50 is greater than 50 µg/mL in [7] (Escherichia coli, E. coli 25922); greater than 50 µg/mL in [8] (Enterococcus faecalis, E. faecalis 29212); greater than 50 µg/mL in [9] (Pseudomonas aeruginosa, P. aeruginosa 10145); greater than 50 µg/mL in data set [10]; greater than 50 µg/mL in data set [11] (Staphylococcus aureus, S. aureus 27660).

With `NCCCn1c2cc(-c3ccc(CCN)c(CCN)c3)ccc2c2ccc(-c3ccc(CCN)c(CCN)c3)cc21` [Compound 159], the “CA (Candida IC50)” value in [1] (vegetative cells) was 2.11 µg/mL. For the same compound, in data set [7], the “EC (MIC)” value was 0.78 µg/mL. Moreover, in data set [8], the “EF (MIC)” value amounted to 3.13 µg/mL. Besides, in data set [9], the “PA (MIC)” value was 6.25 µg/mL. Further, in data set [11], the “SA (MIC)” value worked out at 0.78 µg/mL. Besides, the EC50 in data set [13] was 64 µM; in data set [14] it was 61 µM.

Consider `COc1cc(SCCNC(=N)N)c(C(F)(F)F)cc1NC(=O)c1cc(C(=O)Nc2cc(C(F)(F)F)c(SCCNC(=N)N)cc2OC)nc(SCCNC(=N)N)n1` [Cmpd 183], for which, in data set [1] (setting [15]), the IC50 worked out at 2 µg/mL (≈ 2.31 µM). The EC50 in [2] (setting [16]) is no less than 1000 µM; in data set [2] (setting [17]), 478 µM. The inhibition at 10 µM in [3], in data set [4] and in data set [5] was 100% throughout.
